# Test results reported in patent US20020035061A1, “COMPOSITIONS AND METHODS FOR TREATING INFECTIONS USING CATIONIC PEPTIDES ALONE OR IN COMBINATION WITH ANTIBIOTICS” (priority 1996, published 2002).
# What was measured:
# bacterial isolates = experiment: microbe, parasite or virus in culture; format: cell-based
# [1] = tested on: various bacterial strains; experiment: Broth dilution assay (MIC); format: cell-based
# Method: Typically 100 μl of calcium and magnesium supplemented Mueller Hinton broth is dispensed into each well of a 96-well microtitre plate and 100 μl volumes of two-fold serial dilutions of the peptide are prepared across the plate. One row of wells receives no peptide and is used as a growth control. Each well is inoculated with approximately 5×10^5 CFU of bacteria and the plate is incubated at 35-37° C. for 16-20 hours.
# For example, MIC values in μg/ml are established by broth dilution assay (Table 13) or by agarose dilution assay (Table 14) for a series of cationic peptides against various bacterial strains.
# [2] = S. aureus SA014 (also SA014 MRSA)
# [3] = S. aureus SA025 (also SA025 MRSA)
sequence,measurement,setting,value
ILKKFPFFPFRRK [MBI 11A1CN],Peptide MIC Alone,"bacterial isolates; 3. Ciprofloxacin, S. aureus SA10",128 µg/mL
same,Peptide MIC Alone,"bacterial isolates; 3. Ciprofloxacin, S. aureus SA11",>128 µg/mL
same,Peptide MIC Alone,"bacterial isolates; 4. Gentamicin, E. faecium EFM004",32 µg/mL
same,Peptide MIC Alone,"bacterial isolates; 4. Gentamicin, S. aureus SA014 MRSA",8 µg/mL
same,Peptide MIC Alone,"bacterial isolates; 4. Gentamicin, S. epidermidis SE074",32 µg/mL
same,Peptide MIC Alone,"bacterial isolates; 4. Gentamicin, S. maltophilia SMA019",>128 µg/mL
same,Peptide MIC Alone,"bacterial isolates; 4. Gentamicin, S. maltophilia SMA020",>128 µg/mL
same,Mupirocin MIC + Peptide,bacterial isolates; E. coli ECO1,10 µg/mL
same,Peptide MIC + Mupirocin,bacterial isolates; E. coli ECO1,4 µg/mL
same,Peptide MIC Alone,"bacterial isolates; E. coli ECO1, Mupirocin section",32 µg/mL
same,Mupirocin MIC + Peptide,bacterial isolates; E. coli SBECO2,30 µg/mL
same,Peptide MIC + Mupirocin,bacterial isolates; E. coli SBECO2,2 µg/mL
same,Peptide MIC Alone,"bacterial isolates; E. coli SBECO2, Mupirocin section",128 µg/mL
same,Peptide MIC + Vancomycin,bacterial isolates; E. faecalis EFS001,0.125 µg/mL
same,Peptide MIC Alone,bacterial isolates; E. faecalis EFS001,4 µg/mL
same,Vancomycin MIC + Peptide,bacterial isolates; E. faecalis EFS001,0.5 µg/mL
same,Peptide MIC + Vancomycin,bacterial isolates; E. faecalis EFS006,0.25 µg/mL
same,Peptide MIC Alone,bacterial isolates; E. faecalis EFS006,128 µg/mL
same,Vancomycin MIC + Peptide,bacterial isolates; E. faecalis EFS006,4 µg/mL
same,Peptide MIC + Vancomycin,bacterial isolates; E. faecalis EFS007,0.5 µg/mL
same,Peptide MIC Alone,bacterial isolates; E. faecalis EFS007,128 µg/mL
same,Vancomycin MIC + Peptide,bacterial isolates; E. faecalis EFS007,2 µg/mL
same,Peptide MIC + Vancomycin,bacterial isolates; E. faecalis EFS010,2 µg/mL
same,Peptide MIC Alone,bacterial isolates; E. faecalis EFS010,128 µg/mL
same,Vancomycin MIC + Peptide,bacterial isolates; E. faecalis EFS010,4 µg/mL
same,Peptide MIC + Vancomycin,bacterial isolates; E. faecalis EFS012,8 µg/mL
same,Peptide MIC Alone,bacterial isolates; E. faecalis EFS012,64 µg/mL
same,Vancomycin MIC + Peptide,bacterial isolates; E. faecalis EFS012,32 µg/mL
same,Peptide MIC + Vancomycin,bacterial isolates; E. faecalis EFS014,2 µg/mL
same,Peptide MIC Alone,bacterial isolates; E. faecalis EFS014,4 µg/mL
same,Vancomycin MIC + Peptide,bacterial isolates; E. faecalis EFS014,1 µg/mL
same,Gentamicin MIC + Peptide,bacterial isolates; E. faecium EFM004,64 µg/mL
same,Peptide MIC + Gentamicin,bacterial isolates; E. faecium EFM004,1 µg/mL
same,Peptide MIC + Vancomycin,bacterial isolates; E. faecium EFM004,16 µg/mL
same,Peptide MIC Alone,bacterial isolates; E. faecium EFM004,32 µg/mL
same,Vancomycin MIC + Peptide,bacterial isolates; E. faecium EFM004,0.5 µg/mL
same,Peptide MIC + Vancomycin,bacterial isolates; E. faecium EFM007,16 µg/mL
same,Peptide MIC Alone,bacterial isolates; E. faecium EFM007,64 µg/mL
same,Vancomycin MIC + Peptide,bacterial isolates; E. faecium EFM007,4 µg/mL
same,Peptide MIC + Vancomycin,bacterial isolates; E. faecium EFM009,8 µg/mL
same,Peptide MIC Alone,bacterial isolates; E. faecium EFM009,64 µg/mL
same,Vancomycin MIC + Peptide,bacterial isolates; E. faecium EFM009,4 µg/mL
same,Peptide MIC + Tobramycin,bacterial isolates; P. aeruginosa PA026,0.125 µg/mL
same,Tobramycin MIC + Peptide,bacterial isolates; P. aeruginosa PA026,4 µg/mL
same,Peptide MIC Alone,"bacterial isolates; P. aeruginosa PA026, Tobramycin section",>128 µg/mL
same,Peptide MIC + Tobramycin,bacterial isolates; P. aeruginosa PA032,0.5 µg/mL
same,Tobramycin MIC + Peptide,bacterial isolates; P. aeruginosa PA032,8 µg/mL
same,Peptide MIC Alone,"bacterial isolates; P. aeruginosa PA032, Tobramycin section",>128 µg/mL
same,Ciprofloxacin MIC + Peptide,bacterial isolates; S. aureus SA10,16 µg/mL
same,Peptide MIC + Ciprofloxacin,bacterial isolates; S. aureus SA10,4 µg/mL
same,Ciprofloxacin MIC + Peptide,bacterial isolates; S. aureus SA11,32 µg/mL
same,Peptide MIC + Ciprofloxacin,bacterial isolates; S. aureus SA11,1 µg/mL
same,Peptide MIC + Tobramycin,bacterial isolates; [2],8 µg/mL
same,Tobramycin MIC + Peptide,bacterial isolates; [2],0.125 µg/mL
same,Peptide MIC Alone,"bacterial isolates; S. aureus SA014 (also SA014 MRSA), Tobramycin section",16 µg/mL
same,Gentamicin MIC + Peptide,bacterial isolates; S. aureus SA014 MRSA,2 µg/mL
same,Peptide MIC + Gentamicin,bacterial isolates; S. aureus SA014 MRSA,4 µg/mL
same,Peptide MIC + Tobramycin,bacterial isolates; [3],4 µg/mL
same,Tobramycin MIC + Peptide,bacterial isolates; [3],0.125 µg/mL
same,Peptide MIC Alone,"bacterial isolates; S. aureus SA025 (also SA025 MRSA), Tobramycin section",8 µg/mL
same,Gentamicin MIC + Peptide,bacterial isolates; S. epidermidis SE074,1 µg/mL
same,Peptide MIC + Gentamicin,bacterial isolates; S. epidermidis SE074,16 µg/mL
same,Peptide MIC + Tobramycin,bacterial isolates; S. haemolyticus SHA001,0.125 µg/mL
same,Tobramycin MIC + Peptide,bacterial isolates; S. haemolyticus SHA001,2 µg/mL
same,Peptide MIC Alone,"bacterial isolates; S. haemolyticus SHA001, Tobramycin section",8 µg/mL
same,Peptide MIC + Tobramycin,bacterial isolates; S. haemolyticus SHA005,0.125 µg/mL
same,Tobramycin MIC + Peptide,bacterial isolates; S. haemolyticus SHA005,4 µg/mL
same,Peptide MIC Alone,"bacterial isolates; S. haemolyticus SHA005, Tobramycin section",16 µg/mL
same,Gentamicin MIC + Peptide,bacterial isolates; S. maltophilia SMA019,2 µg/mL
same,Peptide MIC + Gentamicin,bacterial isolates; S. maltophilia SMA019,16 µg/mL
same,Gentamicin MIC + Peptide,bacterial isolates; S. maltophilia SMA020,2 µg/mL
same,Peptide MIC + Gentamicin,bacterial isolates; S. maltophilia SMA020,16 µg/mL
same,Peptide MIC + Tobramycin,bacterial isolates; S. maltophilia SMA029,32 µg/mL
same,Tobramycin MIC + Peptide,bacterial isolates; S. maltophilia SMA029,4 µg/mL
same,Peptide MIC Alone,"bacterial isolates; S. maltophilia SMA029, Tobramycin section",>128 µg/mL
same,Peptide MIC + Tobramycin,bacterial isolates; S. maltophilia SMA030,64 µg/mL
same,Tobramycin MIC + Peptide,bacterial isolates; S. maltophilia SMA030,2 µg/mL
same,Peptide MIC Alone,"bacterial isolates; S. maltophilia SMA030, Tobramycin section",>128 µg/mL
same,FIC,"bacterial isolates; peptide + Ciprofloxacin, S. aureus SA10",0.53
same,FIC,"bacterial isolates; peptide + Ciprofloxacin, S. aureus SA11",0.50
same,FIC,"bacterial isolates; peptide + Gentamicin, E. faecium EFM004",0.28
same,FIC,"bacterial isolates; peptide + Gentamicin, S. aureus SA014 MRSA",0.56
same,FIC,"bacterial isolates; peptide + Gentamicin, S. epidermidis SE074",0.51
same,FIC,"bacterial isolates; peptide + Gentamicin, S. maltophilia SMA019",0.31
same,FIC,"bacterial isolates; peptide + Gentamicin, S. maltophilia SMA020",0.31
same,FIC,"bacterial isolates; peptide + Mupirocin, E. coli ECO1",0.14
same,FIC,"bacterial isolates; peptide + Mupirocin, E. coli SBECO2",0.05
same,FIC,"bacterial isolates; peptide + Tobramycin, P. aeruginosa PA026",0.50
same,FIC,"bacterial isolates; peptide + Tobramycin, P. aeruginosa PA032",0.50
same,FIC,"bacterial isolates; peptide + Tobramycin, S. aureus SA014 (also SA014 MRSA)",0.50
same,FIC,"bacterial isolates; peptide + Tobramycin, S. aureus SA025 (also SA025 MRSA)",0.50
same,FIC,"bacterial isolates; peptide + Tobramycin, S. haemolyticus SHA001",0.52
same,FIC,"bacterial isolates; peptide + Tobramycin, S. haemolyticus SHA005",0.51
same,FIC,"bacterial isolates; peptide + Tobramycin, S. maltophilia SMA029",0.16
same,FIC,"bacterial isolates; peptide + Tobramycin, S. maltophilia SMA030",0.27
same,FIC,"bacterial isolates; peptide + Vancomycin, E. faecalis EFS001",0.53
same,FIC,"bacterial isolates; peptide + Vancomycin, E. faecalis EFS006",0.50
same,FIC,"bacterial isolates; peptide + Vancomycin, E. faecalis EFS007",0.50
same,FIC,"bacterial isolates; peptide + Vancomycin, E. faecalis EFS010",0.27
same,FIC,"bacterial isolates; peptide + Vancomycin, E. faecalis EFS012",0.25
same,FIC,"bacterial isolates; peptide + Vancomycin, E. faecalis EFS014",0.51
same,FIC,"bacterial isolates; peptide + Vancomycin, E. faecium EFM004",0.50
same,FIC,"bacterial isolates; peptide + Vancomycin, E. faecium EFM007",0.28
same,FIC,"bacterial isolates; peptide + Vancomycin, E. faecium EFM009",0.25
same,MIC,[1]; A. calcoaceticus 8191,>256 µg/mL
same,MIC,[1]; E. cloacae 13047,>256 µg/mL
same,MIC,[1]; E. coli 25922,512 µg/mL
same,MIC,[1]; E. coli DH1,128 µg/mL
same,MIC,[1]; E. coli ECO003,>256 µg/mL
same,MIC,[1]; E. coli KL4,256 µg/mL
same,MIC,[1]; E. faecalis 29212,>256 µg/mL
same,MIC,[1]; K. pneumoniae 13883,>256 µg/mL
same,MIC,[1]; K. pneumoniae B44,>256 µg/mL
same,MIC,[1]; P. aeruginosa 27853,>256 µg/mL
same,MIC,[1]; P. aeruginosa 8509041,>256 µg/mL
same,MIC,[1]; P. aeruginosa 9308077,>256 µg/mL
same,MIC,[1]; P. aeruginosa 9503024,>256 µg/mL
same,MIC,[1]; P. aeruginosa H650,>256 µg/mL
same,MIC,[1]; P. aeruginosa H652,>256 µg/mL
same,MIC,[1]; S. aureus 25923,512 µg/mL
same,MIC,[1]; S. aureus 27217,>256 µg/mL
same,MIC,[1]; S. aureus 29213,512 µg/mL
same,MIC,[1]; S. aureus 33593,>256 µg/mL
same,MIC,[1]; S. aureus 8402093,>256 µg/mL
same,MIC,[1]; S. aureus 8809014,>256 µg/mL
same,MIC,[1]; S. aureus 8809025,>256 µg/mL
same,MIC,[1]; S. epidermidis 14990,512 µg/mL
same,MIC,[1]; S. maltophilia 13637,256 µg/mL
same,MIC,[1]; S. maltophilia H361,256 µg/mL
same,MIC,[1]; S. marcescens 13880,>256 µg/mL
same,MIC,[1]; S. marcescens B21,>256 µg/mL
